# In US10214519B2, “Phosphatidylinositol 3-kinase inhibitors” (Gilead Sciences, Inc., priority 2016, dated 2019):
# Target: PI3Kβ (Homo sapiens (Human), UniProt P42338)
# Test: PI3K isoform TR-FRET enzymatic assay (PI3Kβ)
# Format: biochemical
# Conditions: 2× Km ATP, 30 minutes at 25° C.
# Summary of the method: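 Heterodimeric recombinant PI3Kβ was incubated with compound 30 minutes at 25° C. Product was detected by TR-FRET competition with 10 nM labeled PIP3 for 35 nM Eu-GRP-1 PH domain after EDTA stop. Data were normalized to 1 μM wortmannin and DMSO, and IC50 was taken from a four-parameter fit.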
# Chain of PI3Kβ (P42338 whole entry, canonical isoform): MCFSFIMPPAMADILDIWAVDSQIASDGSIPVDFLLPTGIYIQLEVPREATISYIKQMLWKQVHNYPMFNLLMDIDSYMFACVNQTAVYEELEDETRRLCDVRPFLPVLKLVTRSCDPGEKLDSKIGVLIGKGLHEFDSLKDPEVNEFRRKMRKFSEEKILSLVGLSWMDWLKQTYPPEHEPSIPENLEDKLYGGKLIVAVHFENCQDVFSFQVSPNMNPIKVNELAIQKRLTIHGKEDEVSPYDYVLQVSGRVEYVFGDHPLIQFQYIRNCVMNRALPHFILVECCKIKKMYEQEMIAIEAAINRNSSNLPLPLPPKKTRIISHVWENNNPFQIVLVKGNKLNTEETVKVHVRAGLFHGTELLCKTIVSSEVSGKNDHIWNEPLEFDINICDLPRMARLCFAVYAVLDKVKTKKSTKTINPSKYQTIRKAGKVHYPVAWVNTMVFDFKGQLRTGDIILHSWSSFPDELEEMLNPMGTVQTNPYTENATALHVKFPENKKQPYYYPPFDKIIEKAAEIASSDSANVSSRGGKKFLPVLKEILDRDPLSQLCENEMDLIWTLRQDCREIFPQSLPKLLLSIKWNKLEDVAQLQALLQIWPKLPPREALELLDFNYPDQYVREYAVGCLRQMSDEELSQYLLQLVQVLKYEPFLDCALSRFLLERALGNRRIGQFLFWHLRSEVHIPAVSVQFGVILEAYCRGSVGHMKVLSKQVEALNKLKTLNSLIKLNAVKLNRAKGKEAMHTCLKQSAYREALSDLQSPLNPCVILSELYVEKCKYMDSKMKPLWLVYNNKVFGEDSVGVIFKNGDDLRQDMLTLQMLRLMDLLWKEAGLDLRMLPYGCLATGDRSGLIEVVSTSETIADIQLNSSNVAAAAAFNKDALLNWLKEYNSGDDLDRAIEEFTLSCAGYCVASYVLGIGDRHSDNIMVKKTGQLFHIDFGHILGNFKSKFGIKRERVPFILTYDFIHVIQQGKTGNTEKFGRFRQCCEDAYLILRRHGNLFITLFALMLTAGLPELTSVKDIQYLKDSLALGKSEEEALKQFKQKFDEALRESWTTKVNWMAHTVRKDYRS
# Chain of PI3Kβ (P27986 whole entry partner, canonical isoform): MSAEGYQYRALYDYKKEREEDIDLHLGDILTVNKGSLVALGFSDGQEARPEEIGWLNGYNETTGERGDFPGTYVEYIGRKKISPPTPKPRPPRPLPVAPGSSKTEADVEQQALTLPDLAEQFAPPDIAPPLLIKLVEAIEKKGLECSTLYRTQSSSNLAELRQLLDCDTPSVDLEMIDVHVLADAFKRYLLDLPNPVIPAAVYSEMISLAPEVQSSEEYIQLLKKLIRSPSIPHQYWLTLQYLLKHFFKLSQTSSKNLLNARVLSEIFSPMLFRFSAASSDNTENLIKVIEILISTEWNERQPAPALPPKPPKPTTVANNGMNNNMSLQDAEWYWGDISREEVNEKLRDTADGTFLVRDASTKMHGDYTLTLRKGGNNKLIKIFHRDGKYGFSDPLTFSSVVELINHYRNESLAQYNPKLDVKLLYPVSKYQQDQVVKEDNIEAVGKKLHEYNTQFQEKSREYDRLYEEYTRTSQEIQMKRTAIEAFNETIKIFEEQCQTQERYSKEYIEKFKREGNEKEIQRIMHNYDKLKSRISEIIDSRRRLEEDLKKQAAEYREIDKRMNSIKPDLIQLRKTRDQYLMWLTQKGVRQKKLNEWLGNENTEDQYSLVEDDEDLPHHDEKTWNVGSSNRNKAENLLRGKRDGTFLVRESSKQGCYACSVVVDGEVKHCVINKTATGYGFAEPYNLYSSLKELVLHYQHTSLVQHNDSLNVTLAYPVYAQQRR
row,IC50 [nM],SMILES
1,4,"Cc1csc(-c2cc(N3CCOCC3)cc3c2nc(C)n3-c2ccnc3c(Cl)ccc(F)c23)n1 [Example 238, 4-[3-(8-chloro-5-fluoroquinolin-4-yl)-2-methyl-7-(4-methyl-1,3-thiazol-2-yl)benzimidazol-5-yl]morpholine]"
2,12,"CCCc1nc2c(-c3nccs3)cc(N3CCOCC3)cc2n1-c1ccnc2c(F)ccc(F)c12 [Example 239, 4-[3-(5,8-difluoroquinolin-4-yl)-2-propyl-7-(1,3-thiazol-2-yl)benzimidazol-5-yl]morpholine]"
3,2,"Cc1nc2c(-c3nccs3)cc(N3CCOCC3)cc2n1-c1ccnc2c(Cl)ccc(F)c12 [Example 240, 4-[3-(8-chloro-5-fluoroquinolin-4-yl)-2-methyl-7-(1,3-thiazol-2-yl)benzimidazol-5-yl]morpholine]"
4,27,"Fc1ccc(F)c2c(-n3c(C4CC4)nc4c(-c5nccs5)cc(N5CCOCC5)cc43)ccnc12 [Example 241, 4-[2-cyclopropyl-3-(5,8-difluoroquinolin-4-yl)-7-(1,3-thiazol-2-yl)benzimidazol-5-yl]morpholine]"
5,6,"Fc1ccc(Cl)c2nccc(-n3c(C4CC4)nc4c(-c5ncco5)cc(N5CCOCC5)cc43)c12 [Example 242, 4-[3-(8-chloro-5-fluoroquinolin-4-yl)-2-cyclopropyl-7-(1,3-oxazol-2-yl)benzimidazol-5-yl]morpholine]"
6,26,"Cc1csc(-c2cc(N3CCOCC3)cc3c2nc(C2CC2)n3-c2ccnc3c(Cl)ccc(F)c23)n1 [Example 243, 4-[3-(8-chloro-5-fluoroquinolin-4-yl)-2-cyclopropyl-7-(4-methyl-1,3-thiazol-2-yl)benzimidazol-5-yl]morpholine]"
7,9,"Cc1nc2c(-c3nccs3)cc(N3CCOCC3)cc2n1-c1ccnc2c(Cl)cccc12 [Example 244, 4-[3-(8-chloroquinolin-4-yl)-2-methyl-7-(1,3-thiazol-2-yl)benzimidazol-5-yl]morpholine]"
8,21,"CCc1nc2c(-c3cnc(C)[nH]3)cc(N3CCOCC3)cc2n1-c1ccnc2c(Cl)cccc12 [Example 245, 4-[3-(8-chloroquinolin-4-yl)-2-ethyl-7-(2-methyl-1H-imidazol-5-yl)benzimidazol-5-yl]morpholine]"
9,1100,"Cc1nc2c(-c3cnccn3)cc(N3CCOCC3)cc2n1-c1ccnc2c(Cl)cccc12 [Example 246, 4-[3-(8-chloroquinolin-4-yl)-2-methyl-7-pyrazin-2-ylbenzimidazol-5-yl]morpholine]"
10,12,"Fc1ccc(Cl)c2nccc(-n3c(C4CC4)nc4c(-c5nccs5)cc(N5CCOCC5)cc43)c12 [Example 247, 4-(1-(8-chloro-5-fluoroquinolin-4-yl)-2-cyclopropyl-4-(thiazol-2-yl)-1H-benzo[d]imidazol-6-yl)morpholine]"
11,22,"Cc1nc2c(-c3cnc(Cl)[nH]3)cc(N3CCOCC3)cc2n1-c1ccnc2c(F)cccc12 [Example 260, 4-(4-(2-chloro-1H-imidazol-5-yl)-1-(8-fluoroquinolin-4-yl)-2-methyl-1H-benzo[d]imidazol-6-yl)morpholine]"
12,24,"Cc1nc2c(-c3ccc[nH]3)cc(N3CCOCC3)cc2n1-c1ccnc2c(Cl)cccc12 [Example 261, 4-[3-(8-chloroquinolin-4-yl)-2-methyl-7-(1H-pyrrol-2-yl)benzimidazol-5-yl]morpholine]"
13,27,"Cc1nc2c(-c3cc[nH]n3)cc(N3CCOCC3)cc2n1-c1ccnc2c(Cl)cccc12 [Example 262, 4-[3-(8-chloroquinolin-4-yl)-2-methyl-7-(1H-pyrazol-3-yl)benzimidazol-5-yl]morpholine]"
14,13,"Cc1nc2c(-c3cc[nH]c3)cc(N3CCOCC3)cc2n1-c1ccnc2c(Cl)cccc12 [Example 263, 4-[3-(8-chloroquinolin-4-yl)-2-methyl-7-(1H-pyrrol-3-yl)benzimidazol-5-yl]morpholine]"
15,770,"Cc1nc2c(-c3ccn(S(C)(=O)=O)c3)cc(N3CCOCC3)cc2n1-c1ccnc2c(Cl)cccc12 [Example 264, 4-[3-(8-chloroquinolin-4-yl)-2-methyl-7-(1-methylsulfonylpyrrol-3-yl)benzimidazol-5-yl]morpholine]"
16,460,"Cc1nc2c(-c3cscn3)cc(N3CCOCC3)cc2n1-c1ccnc2ccccc12 [Example 265, 4-[2-methyl-3-quinolin-4-yl-7-(1,3-thiazol-4-yl)benzimidazol-5-yl]morpholine]"
17,11,"Cc1nc2c(-c3cnc[nH]3)cc(N3CCOCC3)cc2n1-c1ccnc2c(Cl)cccc12 [Example 266, 4-[3-(8-chloroquinolin-4-yl)-7-(1H-imidazol-5-yl)-2-methylbenzimidazol-5-yl]morpholine]"
18,2100,"Cc1nc2c(-c3ccc(Cl)s3)cc(N3CCOCC3)cc2n1-c1ccnc2c(Cl)cccc12 [Example 267, 4-[3-(8-chloroquinolin-4-yl)-7-(5-chlorothiophen-2-yl)-2-methylbenzimidazol-5-yl]morpholine]"
19,317,"Cc1cc(-c2cc(N3CCOCC3)cc3c2nc(C)n3-c2ccnc3c(Cl)cccc23)n[nH]1 [Example 268, 4-[3-(8-chloroquinolin-4-yl)-2-methyl-7-(5-methyl-1H-pyrazol-3-yl)benzimidazol-5-yl]morpholine]"
20,7000,"Cc1nc2c(-c3ccnn3C)cc(N3CCOCC3)cc2n1-c1ccnc2c(Cl)cccc12 [Example 269, 4-[3-(8-chloroquinolin-4-yl)-2-methyl-7-(2-methylpyrazol-3-yl)benzimidazol-5-yl]morpholine]"
21,36,"Cc1nc2c(-c3cscn3)cc(N3CCOCC3)cc2n1-c1ccnc2c(Cl)cccc12 [Example 270, 4-[3-(8-chloroquinolin-4-yl)-2-methyl-7-(1,3-thiazol-4-yl)benzimidazol-5-yl]morpholine]"
22,46,"Cc1nc2c(-c3cccs3)cc(N3CCOCC3)cc2n1-c1ccnc2c(Cl)cccc12 [Example 271, 4-[3-(8-chloroquinolin-4-yl)-2-methyl-7-thiophen-2-ylbenzimidazol-5-yl]morpholine]"
23,65,"Cc1nc2c(-c3ccsc3)cc(N3CCOCC3)cc2n1-c1ccnc2c(Cl)cccc12 [Example 272, 4-[3-(8-chloroquinolin-4-yl)-2-methyl-7-thiophen-3-ylbenzimidazol-5-yl]morpholine]"
24,2600,"Cc1nc2c(-c3ccc(C#N)s3)cc(N3CCOCC3)cc2n1-c1ccnc2c(Cl)cccc12 [Example 273, 5-[1-(8-chloroquinolin-4-yl)-2-methyl-6-morpholin-4-ylbenzimidazol-4-yl]thiophene-2-carbonitrile]"
25,27,"Cc1nc2c(-c3ccco3)cc(N3CCOCC3)cc2n1-c1ccnc2c(Cl)cccc12 [Example 274, 4-[3-(8-chloroquinolin-4-yl)-7-(furan-2-yl)-2-methylbenzimidazol-5-yl]morpholine]"
26,88,"Cc1nc2c(-c3ccoc3)cc(N3CCOCC3)cc2n1-c1ccnc2c(Cl)cccc12 [Example 275, 4-[3-(8-chloroquinolin-4-yl)-7-(furan-3-yl)-2-methylbenzimidazol-5-yl]morpholine]"
27,420,"Cc1nc2c(-c3cncs3)cc(N3CCOCC3)cc2n1-c1ccnc2c(Cl)cccc12 [Example 276, 4-[3-(8-chloroquinolin-4-yl)-2-methyl-7-(1,3-thiazol-5-yl)benzimidazol-5-yl]morpholine]"
